Results from patent US20070072222A1, “FABP4 as biomarker for toxic effect” (priority 2005, published 2007).
One block for each compound: values may come before it.

Experiments:
[1] = tested on: rat tissue (liver, heart, skeletal muscle, Brown adipose tissue); test: Oral repeat-dose toxicity study in rats; assay type: in vivo, Wistar rats; conditions: at similar exposure levels as in mice
Protocol: Wistar rats (RCC Ltd, Füllinsdorf): • treatment with 3-{1-[2-(2-CHLORO-PHENYL)-5-METHYL-OXAZOL-4-YLMETHYL]-1H-INDOL-5-YL}-2-ETHOXY-PROPIONIC ACID for 14 days; doses were 0, 0.3 and 1.2 mg/kg • Treatment with 3-{1-[2-(2-CHLORO-PHENYL)-5-METHYL-OXAZOL-4-YLMETHYL]-1H-INDOL-5-YL}-2-ETHOXY-PROPIONIC ACID for 28 days; doses were 0, 0.1, 0.5 and 2.5 mg/kg
(§1) Cynomolgus Monkey (macaca fascicularis): • treatment with 3-{1-[2-(2-CHLORO-PHENYL)-5-METHYL-OXAZOL-4-YLMETHYL]-1H-INDOL-5-YL}-2-ETHOXY-PROPIONIC ACID for 28 days; doses were 0, 0.015, 0.09 and 0.31 mg/kg • Treatment with 3-{1-[2-(2-CHLORO-PHENYL)-5-METHYL-OXAZOL-4-YLMETHYL]-1H-INDOL-5-YL}-2-ETHOXY-PROPIONIC ACID for 16 weeks; doses were […], 0.1, 0.3 and 1 mg/kg 3-{1-[2-(2-CHLORO-PHENYL)-5-METHYL-OXAZOL-4-YLMETHYL]-1H-INDOL-5-YL}-2-ETHOXY-PROPIONIC ACID was dissolved in 20% propylene glycol/phosphate buffer, pH8. Treated animals were dosed orally (p.o.).

[2] = tested on: monkey tissue (liver, heart, skeletal muscle, Brown adipose tissue); test: Oral repeat-dose toxicity study in monkeys; assay type: in vivo, Cynomolgus Monkey (macaca fascicularis); conditions: at similar exposure levels as in mice
Protocol: as §1

mice = test: Oral repeat-dose toxicity study in mice; assay type: in vivo, mouse (CD-1, C57BL6)
Protocol: (§2) CD-1 mice (Charles River Laboratories, UK): • treatment with 3-{1-[2-(2-CHLORO-PHENYL)-5-METHYL-OXAZOL-4-YLMETHYL]-1H-INDOL-5-YL}-2-ETHOXY-PROPIONIC ACID for 1 day; doses were 0, 0.2 and 3 mg/kg • treatment with 3-{1-[2-(2-CHLORO-PHENYL)-5-METHYL-OXAZOL-4-YLMETHYL]-1H-INDOL-5-YL}-2-ETHOXY-PROPIONIC ACID for 10 days; doses were 0, 0.2 and 3 mg/kg • treatment with 3-{1-[2-(2-CHLORO-PHENYL)-5-METHYL-OXAZOL-4-YLMETHYL]-1H-INDOL-5-YL}-2-ETHOXY-PROPIONIC ACID for 14 days; doses were 0, 0.6 and 15 mg/kg
(§3) C57BL6 mice (RCC Ltd, Füllinsdorf): • treatment with 3-{1-[2-(2-CHLORO-PHENYL)-5-METHYL-OXAZOL-4-YLMETHYL]-1H-INDOL-5-YL}-2-ETHOXY-PROPIONIC ACID for 1 day; doses were 0, 0.2 and 3 mg/kg • treatment with 3-{1-[2-(2-CHLORO-PHENYL)-5-METHYL-OXAZOL-4-YLMETHYL]-1H-INDOL-5-YL}-2-ETHOXY-PROPIONIC ACID for 10 days; doses were 0, 0.2 and 3 mg/kg
as §1

[3] = tested on: mouse FABP4 (SEQ. ID NO: 3); test: FABP4 gene expression in mouse liver (Affymetrix microarray MEA 230 plus); assay type: in vivo, mouse (CD1, C57Bl/6); conditions: mice, after p.o. administration
Protocol: as §2, §3
(§4) The expression levels of FABP4 of the mice (SEQ. ID NO: 3) were measured using Affymetrix microarrays (MEA 230 plus, probe sets: 1417023_a_at, 1424155_at, 1425809_at, 1451263_a_at) or Applied Biosystems Assays on Demand (assay ID: Mm00445880_ml). The expression levels of FABP4 of the rat (SEQ. ID NO: 2) were measured using Affymetrix microarrays (RG U34A, probe set: rc_AI169612_at) or Applied Biosystems Assays on Demand (assay ID: Rn00670361_ml). The expression levels of FABP4 of the monkeys were not measured.

[4] = tested on: rat FABP4 (SEQ. ID NO: 2); test: FABP4 gene expression in rat liver (Affymetrix microarray RG U34A); assay type: in vivo, Wistar rats; conditions: for FABP4 expression relative to time matched vehicle control, Affymetrix result (Fold change): rat liver
Protocol: as §4
(§5) Wistar rats (RCC Ltd, Füllinsdorf): • treatment with INDOMETHACIN (1-(4-Chlorobenzoyl)-5-methoxy-2-methyl-3-indoleacetic acid, Sigma I7378), single dose p.o. (orally); doses were 0, 2, 10 and 20 mg/kg • Treatment with INDOMETHACIN (1-(4-Chlorobenzoyl)-5-methoxy-2-methyl-3-indoleacetic acid, Sigma I7378) for 7 days; doses were 0, 2, and 5 mg/kg/day INDOMETHACIN was dissolved in corn oil. Treated animals were dosed orally (p.o.). The expression levels of FABP4 of the rat (SEQ. ID NO: 2) were measured using Affymetrix microarrays (RG U34A, probe sets: rc_AI169612_at) or Applied Biosystems Assays on Demand (assay ID: Rn00670361_ml).

[5] = tested on: rat FABP4 (SEQ. ID NO: 2); test: FABP4 mRNA expression in rat liver by PCR (Applied Biosystems Assays on Demand); assay type: in vivo, Wistar rats
Protocol: as §4, §5

livers = test: Liver histopathology and clinical biochemistry in indomethacin treated rats; assay type: in vivo, Wistar rats
Protocol: as §5

[6] = single dose 20 mg/kg, necropsy 24 hours

Compound: CCOC(Cc1ccc2c(ccn2Cc2nc(-c3ccccc3Cl)oc2C)c1)C(=O)O (stereo not drawn) [3-{1-[2-(2-CHLORO-PHENYL)-5-METHYL-OXAZOL-4-YLMETHYL]-1H-INDOL-5-YL}-2-ETHOXY-PROPIONIC ACID]
- Toxicity in tissue (liver, heart, skeletal muscle, brown adipose tissue) [1]: not observed
- Toxicity in tissue (liver, heart, skeletal muscle, brown adipose tissue) [2]: not observed
- Dose at which mortality occurred (mice; mice, p.o.): ≥ 0.6 mg/kg/day
- Exposure at which dose-dependent severe toxicity was found (mice; mouse, in vivo, po): ≥ 50 × anticipated human exposure
- Findings in other tissues (mice; mouse, in vivo, po): degeneration of heart and skeletal muscle, and brown adipose tissue
- Expression of fatty acid binding protein 4 in liver [3]: strong induction
- Expression of FABP4 in liver ([4]; rat, in vivo): not induced

Compound: ClC(Cl)(Cl)Cl [carbon tetrachloride]
- Expression of FABP4 in liver ([4]; rats, after administration): an induction of the expression of FABP4 was also found

- FABP4 expression relative to time matched vehicle control, PCR result (Fold change) ([5]; 5 mg/kg/day for 7 days): 26.92 Fold change
- FABP4 expression relative to time matched vehicle control, Affymetrix result (Fold change) ([4]; 2 mg/kg/day for 7 days): 1 Fold change
- FABP4 expression relative to time matched vehicle control, Affymetrix result (Fold change) ([4]; 5 mg/kg/day for 7 days): 79.59 Fold change
- Expression of fatty acid binding protein 4 in liver (Affymetrix gene arrays) ([4]; rats, 24 hours after single dose 10 or 20 mg/kg, and 7 consecutive days 5 mg/kg/day): strong induction
Compound: COc1ccc2c(c1)c(CC(=O)O)c(C)n2C(=O)c1ccc(Cl)cc1 [indomethacin, 1-(4-Chlorobenzoyl)-5-methoxy-2-methyl-3-indoleacetic acid]
- FABP4 expression relative to time matched vehicle control, PCR result (Fold change) [5, 6]: 13.68 Fold change
- Clinical biochemistry parameters (livers; especially 10 and 20 mg/kg single dose and 5 mg/kg/day repeated treatment): changes of different clinical biochemistry parameters indicative of liver changes
- Liver histopathology (livers; p.o., dose dependent): Slight histopathological alterations (hepatocellular hypertrophy)
- Hepatocellular glycogen deposition (livers; single administration of 10 or 20 mg/kg or 5 mg/kg/day for 7 consecutive days): Decreased hepatocellular glycogen deposition
- Expression of FABP4 in liver ([4]; Wistar, rat, in vivo): an induction of the expression of FABP4 was also found
- FABP4 expression relative to time matched vehicle control, Affymetrix result (Fold change) ([4]; single dose 2 mg/kg, necropsy 6 hours): 1 Fold change
- FABP4 expression relative to time matched vehicle control, Affymetrix result (Fold change) ([4]; single dose 2 mg/kg, necropsy 24 hours): 1 Fold change
- FABP4 expression relative to time matched vehicle control, Affymetrix result (Fold change) ([4]; single dose 10 mg/kg, necropsy 6 hours): 1 Fold change
- FABP4 expression relative to time matched vehicle control, Affymetrix result (Fold change) ([4]; single dose 10 mg/kg, necropsy 24 hours): 4.13 Fold change
- FABP4 expression relative to time matched vehicle control, Affymetrix result (Fold change) ([4]; single dose 20 mg/kg, necropsy 6 hours): 1 Fold change
- FABP4 expression relative to time matched vehicle control, Affymetrix result (Fold change) [4, 6]: 8.41 Fold change

Compound: lipopolysaccharide
- Expression of FABP4 in liver ([4]; rats, after administration): an induction of the expression of FABP4 was also found
